# Patent US20250313563A1, “GLYCOGEN SYNTHASE KINASE 3 INHIBITORS AND USES THEREOF” (The Broad Institute, Inc., priority 2022, published 2025)
# Like-named read-outs stand apart in the source and are kept apart here.
# Key:
# [1] = molecular target: GSK3α (GST-full length GSK3α) (Homo sapiens (Human), UniProt P49840); test: GSK3α TR-FRET kinase assay; format: biochemical
# How it was run: (§1)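 1 nM GST-GSK3α/β + cpd, 30 min preinc; add 200 nM biotin-pS645 GS(631-650) peptide + ATP (α 4 μM / β 2 μM, or 1 mM); 100 min RT, 50 mM Tris pH 7.5, 20 mM MgCl2, 1% DMSO; EDTA stop; SA-d2/Tb-pSer641 Ab 60 min; 665/615 ratio → IC50.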
# [2] = molecular target: GSK3b (GST-full length GSK3b) (Homo sapiens (Human), UniProt P49841); test: GSK3b TR-FRET kinase assay; format: biochemical
# How it was run: as §1
# [3] = 1 nM GSK3α, 4 μM ATP, 30 minute preincubation, Table 16, read-out: GSK3-A TR-FRET BIOCHEMICAL (TR-FRET)
# [4] = read-out: GSK3-A (TR-FRET 1 mM ATP), GMean, IC50, 1 mM ATP, geometric mean
# [5] = 1 nM GSK3b, 2 μM ATP, 30 minute preincubation, Table 16, read-out: GSK3-B TR-FRET BIOCHEMICAL (TR-FRET)
# [6] = read-out: GSK3-B (TR-FRET 1 mM ATP), GMean, IC50, 1 mM ATP, geometric mean
# [7] = 1 nM GSK3α, 4 μM ATP, 30 minute preincubation, read-out: GSK3-A TR-FRET BIOCHEMICAL (TR-FRET), IC50
# [8] = 1 nM GSK3b, 2 μM ATP, 30 minute preincubation, read-out: GSK3-B TR-FRET BIOCHEMICAL (TR-FRET), IC50
# [9] = GSK3-A (TR-FRET 1 mM ATP), GMean, IC50, 1 mM ATP, geometric mean
# [10] = GSK3-B (TR-FRET 1 mM ATP), GMean, IC50, 1 mM ATP, geometric mean
# GSK3b (GST-full length GSK3b), sequence (P49841 whole entry): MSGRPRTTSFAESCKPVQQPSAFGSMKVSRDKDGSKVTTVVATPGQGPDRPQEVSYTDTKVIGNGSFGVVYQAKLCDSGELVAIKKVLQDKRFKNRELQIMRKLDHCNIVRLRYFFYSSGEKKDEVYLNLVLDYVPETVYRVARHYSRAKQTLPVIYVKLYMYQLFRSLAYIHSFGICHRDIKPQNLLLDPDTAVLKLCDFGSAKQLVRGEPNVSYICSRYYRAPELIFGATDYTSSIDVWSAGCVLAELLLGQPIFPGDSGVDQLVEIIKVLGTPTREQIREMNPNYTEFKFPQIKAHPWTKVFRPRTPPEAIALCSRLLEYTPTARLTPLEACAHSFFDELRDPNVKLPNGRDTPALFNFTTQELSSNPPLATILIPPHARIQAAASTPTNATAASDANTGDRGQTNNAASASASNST
# GSK3α (GST-full length GSK3α), sequence (P49840 whole entry): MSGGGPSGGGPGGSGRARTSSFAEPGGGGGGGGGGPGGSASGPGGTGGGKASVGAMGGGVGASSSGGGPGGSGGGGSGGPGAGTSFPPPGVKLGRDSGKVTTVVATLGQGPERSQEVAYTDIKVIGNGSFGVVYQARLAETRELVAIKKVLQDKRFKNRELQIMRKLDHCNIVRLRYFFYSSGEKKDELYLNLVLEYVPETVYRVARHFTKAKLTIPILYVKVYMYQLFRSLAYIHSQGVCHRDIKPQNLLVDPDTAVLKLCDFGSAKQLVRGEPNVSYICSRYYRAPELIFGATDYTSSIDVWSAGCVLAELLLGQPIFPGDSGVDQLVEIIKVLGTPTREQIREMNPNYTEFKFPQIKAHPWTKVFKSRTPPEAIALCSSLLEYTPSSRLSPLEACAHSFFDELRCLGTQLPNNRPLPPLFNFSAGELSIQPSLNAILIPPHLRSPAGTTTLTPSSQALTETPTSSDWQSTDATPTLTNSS
Compound,"IC50 [1, 3] [nM]","IC50 [2, 5] [nM]",other results
CCC1(c2cccc(-c3ccncc3OC)c2)C2=C(CC(C)(C)CC2=O)Nc2n[nH]cc21 (stereo not shown) [Compound 945481],≤ 100,≤ 100,"IC50 [1, 4]: ≤ 100 nM; IC50 [2, 6]: 100 to 1000 nM"
CC1(C)CC(=O)C2=C(C1)Nc1n[nH]cc1[C@]21CCCN(S(=O)(=O)Cc2ccccc2)CC1 [Compound 945483],100 to 1000,100 to 1000,–
CC[C@@]1(c2cccc(-c3ccnc(C)c3)c2)C2=C(CC(C)(C)[C@H](F)C2=O)Nc2n[nH]cc21 [Compound 945486],1000 to 5000,> 5000,–
CCC1(c2cccc(-c3ccncc3C)c2)C2=C(CC(C)(C)CC2=O)Nc2n[nH]c(C(F)(F)F)c21 (stereo not shown) [Compound 945527],≤ 100,≤ 100,"IC50 [1, 4]: ≤ 100 nM; IC50 [2, 6]: 100 to 1000 nM"
CCC1(c2cccc(-c3ccncc3F)c2)C2=C(CC(C)(C)CC2=O)Nc2n[nH]c(C(F)(F)F)c21 (stereo not shown) [Compound 945528],≤ 100,≤ 100,"IC50 [1, 4]: ≤ 100 nM; IC50 [2, 6]: 100 to 1000 nM"
CCC1(c2cccc(-c3ccnn3C)c2)C2=C(CC(C)(C)CC2=O)Nc2n[nH]c(C(F)(F)F)c21 (stereo not shown) [Compound 945531],≤ 100,≤ 100,"IC50 [1, 4]: ≤ 100 nM; IC50 [2, 6]: 100 to 1000 nM"
CCC1(c2cccc(-c3cc(C)nn3C)c2)C2=C(CC(C)(C)CC2=O)Nc2n[nH]c(C(F)(F)F)c21 (stereo not shown) [Compound 945532],≤ 100,≤ 100,"IC50 [1, 4]: ≤ 100 nM; IC50 [2, 6]: 100 to 1000 nM"
CCC1(c2cccc(-c3cnn4c3CCCC4)c2)C2=C(CC(C)(C)CC2=O)Nc2n[nH]cc21 (stereo not shown) [Compound 945543],≤ 100,≤ 100,"IC50 [1, 4]: 100 to 1000 nM; IC50 [2, 6]: 1000 to 5000 nM"
CCC1(c2cccc(-c3cnn4c3CCCC4)c2)C2=C(CC(C)(C)CC2=O)Nc2n[nH]cc21 (stereo not shown) [Compound 945544],100 to 1000,> 5000,–
CC[C@@]1(c2cccc(-c3cn(C)nc3C)c2)C2=C(CC(C)(C)CC2=O)Nc2n[nH]cc21 [Compound 945545],1000 to 5000,> 5000,–
CC[C@]1(c2cccc(-c3cn(C)nc3C)c2)C2=C(CC(C)(C)CC2=O)Nc2n[nH]cc21 [Compound 945546],≤ 100,≤ 100,"IC50 [1, 4]: ≤ 100 nM; IC50 [2, 6]: 100 to 1000 nM"
CC1(C)CC(=O)C2=C(C1)Nc1n[nH]cc1[C@@]21CCCc2c(-c3ccncc3)cccc21 [Compound 945547],1000 to 5000,> 5000,–
CC1(C)CC(=O)C2=C(C1)Nc1n[nH]cc1[C@]21CCCc2c(-c3ccncc3)cccc21 [Compound 945548],≤ 100,≤ 100,–
Cc1cc(-c2cccc3c2CCC[C@]32C3=C(CC(C)(C)CC3=O)Nc3n[nH]cc32)ccn1 [Compound 945549],≤ 100,≤ 100,–
Cc1cc(-c2cccc3c2CCC[C@@]32C3=C(CC(C)(C)CC3=O)Nc3n[nH]cc32)ccn1 [Compound 945550],100 to 1000,> 5000,–
Cn1nccc1-c1cccc2c1CCC[C@]21C2=C(CC(C)(C)CC2=O)Nc2n[nH]cc21 [Compound 945551],≤ 100,≤ 100,–
Cn1nccc1-c1cccc2c1CCC[C@@]21C2=C(CC(C)(C)CC2=O)Nc2n[nH]cc21 [Compound 945552],100 to 1000,> 5000,–
CCC1(c2cccc(-c3c(C)nn(C)c3C)c2)C2=C(CC(C)(C)NC2=O)Nc2n[nH]c(C)c21 (stereo not shown) [Compound 945598],–,–,"IC50 [1, 7]: ≤ 100 nM; IC50 [2, 8]: ≤ 100 nM"
CCc1cc(N(C)c2cccc(C3(CC)C4=C(CC(C)(C)CC4=O)Nc4n[nH]cc43)c2)ccn1 (stereo not shown) [Compound 945600],100 to 1000,1000 to 5000,–
CCC1(c2cccc(CS(C)(=O)=O)c2)C2=C(CC(C)(C)CC2=O)Nc2n[nH]cc21 (stereo not shown) [Compound 945601],100 to 1000,100 to 1000,–
CCC1(c2cccc(N3CCOCC3)c2)C2=C(CC(C)(C)NC2=O)Nc2n[nH]cc21 (stereo not shown) [Compound 945602],–,–,"IC50 [1, 7]: 1000 to 5000 nM; IC50 [2, 8]: > 5000 nM"
CCC1(c2cccc(-c3cnn4c3CCCC4)c2)C2=C(CC(C)(C)NC2=O)Nc2n[nH]cc21 (stereo not shown) [Compound 945603],–,–,"IC50 [1, 7]: ≤ 100 nM; IC50 [2, 8]: 100 to 1000 nM"
CC[C@]1(c2cccc(S(C)(=O)=O)c2)C2=C(CC(C)(C)NC2=O)Nc2n[nH]cc21 [Compound 945604],–,–,"IC50 [1, 7]: ≤ 100 nM; IC50 [2, 8]: ≤ 100 nM"
CC[C@]1(c2cccc(-c3cncn3C)c2)C2=C(CC(C)(C)CC2=O)Nc2n[nH]cc21 [Compound 945605],≤ 100,≤ 100,–
CCC1(c2cccc(-c3ccnc4c3CCC4)c2)C2=C(CC(C)(C)CC2=O)Nc2n[nH]cc21 (stereo not shown) [Compound 945606],≤ 100,100 to 1000,"IC50 [1, 4]: 100 to 1000 nM; IC50 [2, 6]: 1000 to 5000 nM"

Compound,"IC50 [1, 3] [nM]","IC50 [2, 5] [nM]",other results
CC[C@]1(c2cccc(-c3cnc4n3CCCC4)c2)C2=C(CC(C)(C)CC2=O)Nc2n[nH]cc21 [Compound 945607],≤ 100,100 to 1000,"IC50 [1, 4]: 1000 to 5000 nM; IC50 [2, 6]: > 5000 nM"
CC[C@]1(c2cccc(-c3cnn(C)c3C)c2)C2=C(CC(C)(C)NC2=O)Nc2n[nH]cc21 [Compound 945608],–,–,"IC50 [1, 7]: ≤ 100 nM; IC50 [2, 8]: 100 to 1000 nM"
CC[C@]1(c2cccc(N(C)c3cc(C)cc(C)n3)c2)C2=C(CC(C)(C)CC2=O)Nc2n[nH]cc21 [Compound 945610],≤ 100,100 to 1000,–
CC[C@]1(c2cccc(-c3cnn(C)c3)c2)C2=C(CC(C)(C)NC2=O)Nc2n[nH]c(C)c21 [Compound 945611],–,–,"IC50 [1, 7]: > 5000 nM; IC50 [2, 8]: > 5000 nM"
CC[C@]1(c2cccc(-c3cnc(C)n3C)c2)C2=C(CC(C)(C)CC2=O)Nc2n[nH]cc21 [Compound 945612],1000 to 5000,> 5000,–
CC[C@@]1(c2cccc(-c3cnc(C)n3C)c2)C2=C(CC(C)(C)CC2=O)Nc2n[nH]cc21 [Compound 945613],≤ 100,≤ 100,"IC50 [1, 4]: 100 to 1000 nM; IC50 [2, 6]: 1000 to 5000 nM"
CCC1(c2cccc(-c3cnn(C)c3)c2)C2=C(CC(C)(C)NC2=O)Nc2n[nH]c(C)c21 (stereo not shown) [Compound 945614],–,–,"IC50 [1, 7]: ≤ 100 nM; IC50 [1, 4]: 100 to 1000 nM; IC50 [2, 8]: 100 to 1000 nM; IC50 [2, 6]: 1000 to 5000 nM"
CC[C@@]1(c2cccc(-c3cnn(C)c3C)c2)C2=C(CC(C)(C)NC2=O)Nc2n[nH]cc21 [Compound 945617],–,–,"IC50 [1, 7]: 1000 to 5000 nM; IC50 [2, 8]: > 5000 nM"
CC[C@@]1(c2cccc(-c3ccnc4c3CCC4)c2)C2=C(CC(C)(C)CC2=O)Nc2n[nH]cc21 [Compound 945619],1000 to 5000,> 5000,–
CCC1(c2cccc(-c3cncn3C)c2)C2=C(CC(C)(C)CC2=O)Nc2n[nH]cc21 (stereo not shown) [Compound 945620],100 to 1000,1000 to 5000,–
CC[C@@]1(c2cccc(C(F)(F)F)c2)C2=C(CCN(C(C)(C)C)C2=O)Nc2n[nH]cc21 [Compound 945633],–,–,"IC50 [1, 7]: > 5000 nM; IC50 [2, 8]: > 5000 nM"
CC[C@]1(c2cccc(C(F)(F)F)c2)C2=C(CCN(C(C)(C)C)C2=O)Nc2n[nH]cc21 [Compound 945634],–,–,"IC50 [1, 7]: 1000 to 5000 nM; IC50 [2, 8]: > 5000 nM"
CCC1(c2cccc(C(F)(F)F)c2)C2=C(CCN(c3cccnc3)C2=O)Nc2n[nH]cc21 (stereo not shown) [Compound 945637],–,–,"IC50 [1, 7]: ≤ 100 nM; IC50 [2, 8]: 100 to 1000 nM"
CC1(C)CC(=O)C2=C(C1)Nc1n[nH]cc1C21CCN(S(=O)(=O)c2ccccc2Cl)CC1 [Compound 945655],≤ 100,≤ 100,–
COc1cccc(S(=O)(=O)N2CCC3(CC2)C2=C(CC(C)(C)CC2=O)Nc2n[nH]cc23)c1F [Compound 945656],≤ 100,≤ 100,"IC50 [1, 9]: ≤ 100 nM; IC50 [2, 10]: 100 to 1000 nM"
CC1(C)CC(=O)C2=C(C1)Nc1n[nH]cc1C21CCN(S(=O)(=O)c2ccccc2C(F)F)CC1 [Compound 945657],≤ 100,100 to 1000,"IC50 [1, 9]: 100 to 1000 nM; IC50 [2, 10]: 1000 to 5000 nM"
Cc1cnn(C)c1S(=O)(=O)N1CCC2(CC1)C1=C(CC(C)(C)CC1=O)Nc1n[nH]cc12 [Compound 945658],100 to 1000,1000 to 5000,–
CN(C)C(=O)c1ccc(S(=O)(=O)N2CCC3(CC2)C2=C(CC(C)(C)CC2=O)Nc2n[nH]cc23)cc1 [Compound 945659],≤ 100,≤ 100,–
CC1(C)CC(=O)C2=C(C1)Nc1n[nH]cc1C21CCN(S(=O)(=O)c2ccc(Cl)c(Cl)c2)CC1 [Compound 945660],≤ 100,≤ 100,–
CC1(C)CC(=O)C2=C(C1)Nc1n[nH]cc1C21CCN(S(=O)(=O)c2ccc(Cl)cc2)CC1 [Compound 945661],≤ 100,≤ 100,–
COc1ccc(S(=O)(=O)N2CCC3(CC2)C2=C(CC(C)(C)CC2=O)Nc2n[nH]cc23)c(C)c1C [Compound 945662],≤ 100,100 to 1000,–
CC(C)c1nc(S(=O)(=O)N2CCC3(CC2)C2=C(CC(C)(C)CC2=O)Nc2n[nH]cc23)cn1C [Compound 945663],≤ 100,≤ 100,–
CCn1nccc1S(=O)(=O)N1CCC2(CC1)C1=C(CC(C)(C)CC1=O)Nc1n[nH]cc12 [Compound 945664],≤ 100,≤ 100,–
COc1ccc(F)c(S(=O)(=O)N2CCC3(CC2)C2=C(CC(C)(C)CC2=O)Nc2n[nH]cc23)c1 [Compound 945665],≤ 100,≤ 100,–
